Results: patent US7722863B2, “Use of granzyme b as an hsp70/hsp70 peptide dependent inducer of apoptosis in tumor cells” (Multimmune GmbH, priority 2002, dated 2010)

Tests used:
CX+ tumor cells = test: DAPI staining of nuclear DNA fragmentation; format: cell-based, human; details: 24 h, camptothecin 4 μg/ml or granzyme B 6 ng/ml
Experimental: (§1) DAPI-staining: Methanol/aceton fixed cells (0.1×10^6 cells/100 μl) were incubated with 0.5 μg/μl 4,6-diamino-2-phenylindole (DAPI) in PBS/glycerol (3:1), for 15 min in the dark. Following washing in PBS the cells were mounted with Fluorescent Mounting Medium (Dako, Glostrup, Denmark) and than analysed for fluorescence using a Zeiss model Axioscop 2 scanning microscope (Zeiss Jena, Germany) equipped with a 40× objective and standard filters. Apoptosis was visualized with DAPI-staining in 50 cells, each. Images were treated by multiplicative shading correction using software Axiovision (Zeiss Vision Jena, Germany).

Colo− tumor cells = test: DAPI staining of nuclear DNA fragmentation; format: cell-based, human; details: 24 h, camptothecin 4 μg/ml or granzyme B 6 ng/ml
Experimental: as §1

granzyme B
nuclear DNA fragmentation (DAPI) (CX+ tumor cells): DNA fragmentation was detected
nuclear DNA fragmentation (DAPI) (Colo− tumor cells): no DNA fragmentation was observed
